Source: PMC10614203, “Synthesis, Structure–Activity Relationships, Radiofluorination, and Biological Evaluation of [^18F]RM365, a Novel Radioligand for Imaging the Human Cannabinoid Receptor Type 2 (CB2R) in the Brain with PET” (Journal of Medicinal Chemistry, 2023)

Columns and labels:
[1] = Lipophilicity log D7.4, shake flask method, n-octanol/PBS; assay type: physicochemical; conditions: n-octanol/PBS 0.01 M, pH 7.4, room temperature
Procedure: The most efficient protocol for the manual radiosynthesis of [^18F]RM365 was transferred to an automated synthesis module (Elysia-Raytest radiosynthesizer). For the biological evaluation, [^18F]RM365 was obtained with a moderate radiochemical yield of about 5% and high radiochemical purities (>99%), molar activity of about 80 GBq/μmol in a total synthesis time of 60 min (n = 6) starting with activities ranging from 8 to 13 GBq. […] RP and chiral HPLC analysis of the final product coeluted with the corresponding reference compound RM365 confirmed the identity and enantiopurity of the radioligand (Figure 5B). A log D7.4 of 3.0 ± 0.1 was determined by the shake flask method.[80],[81]
Log D7.4 of [^18F]RM365 was experimentally determined in n-octanol/PBS, 0.01 M, pH 7.4, at room temperature by the shake flask method. The measurement was performed twice in triplicate.[87]

rat CB2R = target: T1, rat CB2R (Rattus norvegicus, UniProt Q9QZN9); test: In vitro autoradiography on rat spleen cryosections; assay type: binding; conditions: Figure S2
T1 construct: one spleen from a female SPRD rat expressing high levels of the receptor in the leukocytes; from tissue; host or cells: rat spleen (female SPRD rat; autoradiography also described with male F433 rats)
T1 sequence (Q9QZN9 1-360): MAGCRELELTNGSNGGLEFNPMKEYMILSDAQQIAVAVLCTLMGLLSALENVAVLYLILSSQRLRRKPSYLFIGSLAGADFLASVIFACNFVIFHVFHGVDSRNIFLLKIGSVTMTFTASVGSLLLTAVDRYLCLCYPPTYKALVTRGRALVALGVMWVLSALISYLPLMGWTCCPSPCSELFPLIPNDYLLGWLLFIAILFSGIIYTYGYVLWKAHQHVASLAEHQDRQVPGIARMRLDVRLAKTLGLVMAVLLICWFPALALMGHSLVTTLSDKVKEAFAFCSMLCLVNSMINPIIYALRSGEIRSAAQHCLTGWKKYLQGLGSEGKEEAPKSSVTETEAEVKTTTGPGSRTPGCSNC
Excerpt: To complement the indirect determination of the affinity of RM365 toward the CB2R in vitro, we performed a direct binding study with the radiofluorinated ligand using preparations of CHO cells stably transfected with the cloned human receptor and one spleen from a female SPRD rat expressing high levels of the receptor in the leukocytes.[12] The results of the homologous competition study shown in Figure 6 confirm the good affinity of [^18F]RM365 toward the human CB2R with a KD value of about 2 nM. […] Furthermore, the measurement signal obtained from the incubation of [^18F]RM365 with the homogenate of rat spleen was in the range of the values obtained for the nonspecific binding of the radioligand toward the preparation of CB2R-transfected CHO cells. We conclude that RM365 binds the rat CB2R with lower affinity than the human CB2R but expect no significant interactions of the radioligand with nonspecific binding sites.[82] Because of the available rat model to assess the potential of [^18F]RM365 to cross the blood–brain barrier and to specifically label human CB2R—the hCB2R(D80N) model with high expression of human CB2R in the brain[31],[32],[66],[83]—we intended to confirm the initial findings from the rat homogenate by an autoradiographic study.
The in vitro autoradiographic experiments were performed according to a previously published protocol.[88] […]

Q: With `CC1(C)Cc2ccc(C#N)cc2[C@@H]1NC(=O)c1cc2cc([18F])ccc2[nH]1` [[^18F]RM365] as the molecule, how does the logD [1] read?
A: 3 ± 0.1

Q: What about the “specific interaction with rat CB2R in spleen cryosections, in words” value (rat CB2R) of the same molecule?
A: absence of a specific interaction
